Tests used:
[1] = Clearance in Sprague-Dawley rat plasma at 10 mg/kg, iv measured up to 48 hrs by LC-MS/MS analysis; assay type: ADME, organism-based
[2] = test system: A549; assay: Antiproliferative activity against human A549 cells assessed as reduction in cell viability incubated for 72 hrs by Celltiter-glo assay; assay type: functional, cell-based; details: A549, 72 h
[3] = Tmax in Sprague-Dawley rat plasma at 10 mg/kg, iv measured up to 48 hrs by LC-MS/MS analysis; assay type: ADME, organism-based
[4] = Cmax in Sprague-Dawley rat plasma at 100 mg/kg, po measured up to 48 hrs by LC-MS/MS analysis; assay type: ADME, organism-based; design: dose 100 mg/kg, time < 48 hrs, route po
[5] = MRT(0 to t) in Sprague-Dawley rat plasma at 100 mg/kg, po measured up to 48 hrs by LC-MS/MS analysis; assay type: ADME, organism-based
[6] = MRT(0 to infinity) in Sprague-Dawley rat plasma at 10 mg/kg, iv measured up to 48 hrs by LC-MS/MS analysis; assay type: ADME, organism-based
[7] = Toxicity in Balb/c nude mouse xenografted with human A549 cells assessed as change in body weight at 100 to 150 mg/kg, po administered once daily 24 days; assay type: organism-based; details: in vivo, 576 h, dose 100-150 mg/kg, time 24 day
[8] = Mutagenicity in Salmonella typhimurium TA98 measured at 1.5 to 1000 ug per well for 48 to 72 hrs by mini-Ames test; assay type: toxicity, Salmonella enterica subsp. enterica serovar Typhimurium; details: in vivo; dose lower 1.5 µg, time lower 48 hrs, dose upper 1000 µg, time upper 72 hrs
[9] = Mutagenicity in Salmonella typhimurium TA100 measured at 1.5 to 1000 ug per well for 48 to 72 hrs by mini-Ames test; assay type: toxicity, Salmonella enterica subsp. enterica serovar Typhimurium; details: in vivo; dose lower 1.5 µg, time lower 48 hrs, dose upper 1000 µg, time upper 72 hrs
[10] = Mutagenicity in Salmonella typhimurium TA1535 measured at 1.5 to 1000 ug per well for 48 to 72 hrs by mini-Ames test; assay type: toxicity, Salmonella enterica subsp. enterica serovar Typhimurium; details: in vivo; dose lower 1.5 µg, time lower 48 hrs, dose upper 1000 µg, time upper 72 hrs
[11] = Mutagenicity in Salmonella typhimurium TA1537 measured at 1.5 to 1000 ug per well for 48 to 72 hrs in presence of S9 liver fraction by mini-Ames test; assay type: toxicity, subcellular, Salmonella enterica subsp. enterica serovar Typhimurium; details: dose lower 1.5 µg, time lower 48 hrs, dose upper 1000 µg, time upper 72 hrs

clearance [1]: 36.4 mL/min/kg
IC50 [2]: 4.04 nM
Tmax [3]: 1.98 min
Cmax [4]: 487 ng/mL
MRT last at 48 h [5]: 3.73 h
MRT inf [6]: 1.59 h
Structure (SMILES): O=C(Cc1cccc(Oc2ccccc2)c1)Nc1nnc(N[C@@H]2CCN(c3cccnn3)C2)s1
Activity [7]: Non-Toxic
Activity [8]: Non-Toxic
Activity [9]: Non-Toxic
Activity [10]: Non-Toxic
Activity [11]: Non-Toxic

— ChEMBL document CHEMBL5370626, “Targeting the Subpocket Enables the Discovery of Thiadiazole-Pyridazine Derivatives as Glutaminase C Inhibitors” (ACS Med Chem Lett, 2023)
